Source: patent EP4653431A1, “PYRAZOLE DERIVATIVE, AND PHARMACEUTICALLY ACCEPTABLE SALT, STEREOISOMER, PHARMACEUTICAL COMPOSITION AND USE THEREOF” (Starg (Wuhan) Pharmaceutical Technology Co., Ltd, priority 2023, dated 2024)
Where a name gives a salt, the structure may show the parent alone.

Legend:
OVCAR-3 cells = test: In vitro OVCAR-3 cell viability assay (CellTiter-Glo); assay type: cell-based; settings: Homo sapiens, OVCAR-3, 168 h, 7 days incubation
Experimental: 1640 medium, fetal bovine serum, and penicillin/streptomycin antibiotics were purchased from Wisent. CellTiter-Glo (cell viability chemiluminescence assay reagent) was purchased from Promega. The OVCAR-3 cell line was purchased from Nanjing Cobioer Biosciences Co., Ltd. Envision multimode plate reader (PerkinElmer) was used.
OVCAR-3 cells were seeded into a white 384-well plate, with 40 µL of cell suspension containing 300 OVCAR-3 cells per well. The cell plate was incubated overnight in a CO2 incubator.
The test compound was serially diluted 5-fold using a multichannel pipette to the 8th concentration, i.e., from 2000 µM to 0.00512 µM. The experiment was set up with duplicate wells. 78 µL of culture medium was added to an intermediate plate, and 2 µL per well of the gradient-diluted compound was transferred to the corresponding position in the intermediate plate. After mixing, 10 µL per well of the mixture was transferred to the cell plate. The concentration range of the compound transferred to the cell plate was from 10 µM to 0.026 nM. The cell plate was incubated in a CO2 incubator for 7 days. Another cell plate was prepared, and the signal value was read on the day of compound addition to serve as the maximum value (Max in the equation below) for data analysis. 10 µL per well of CellTiter-Glo reagent was added to the cell plate, and the cell plate was incubated at room temperature for 10 minutes to stabilize the luminescence signal. The signal was read using the multimode plate reader.
10 µL per well of CellTiter-Glo reagent was added to the cell plate, and the cell plate was incubated at room temperature for 10 minutes to stabilize the luminescence signal. The signal was read using the multimode plate reader.
The raw data were converted to inhibition rates using the equation (Sample-Min)/(Max-Min)×100%. The IC50 value was obtained by fitting the data to a four-parameter curve (using log(inhibitor) vs. response -- Variable slope model in GraphPad Prism). Table 1 provides the inhibitory activity of the compounds of the present application against OVCAR-3 cell proliferation.

[1] = Pharmacokinetic study, oral and intravenous administration in mice; set-up: species or system ICR mice; settings: male, ICR, mouse, in vivo
Experimental: This study used ICR male mice as test animals. The plasma concentrations of the test compounds and the reference compound in mice were quantitatively determined at different time points using the LC-MS/MS method following intravenous injection or oral administration to evaluate the pharmacokinetic characteristics of the test compounds in mice.
ICR mice (male, 20-30 g, 6-8 weeks old, Beijing Charles River).
A clear solution of the test compound was administered to ICR mice (fasted overnight or fed) via tail vein injection or oral gavage. For intravenous injection, blood samples (50 µL) were collected via cheek puncture at 0 h (pre-dose) and at 0.083, 0.25, 0.5, 1, 2, 4, 6, 8, and 24 h post-dose into anticoagulant tubes containing sodium heparin. The mixtures were thoroughly vortexed at 4 °C and centrifuged at 6000 rpm for 3 minutes. For oral gavage, blood samples were collected via cheek puncture at 0 h (pre-dose) and at 0.083, 0.25, 1, 2, 4, 6, 8, and 24 h post-dose into anticoagulant tubes containing sodium heparin. The mixtures were vortexed thoroughly, and centrifuged at 6000 rpm for 3 minutes. Plasma drug concentrations were determined using the LC-MS/MS method. Pharmacokinetic parameters were calculated using Phoenix WinNonlin 8.2.0 pharmacokinetic software with a non-compartmental model and linear-logarithmic trapezoidal rule.

[2] = test system: Human Ovarian Cancer OVCAR-3 Cell Subcutaneous Xenograft Tumor; test: In vivo pharmacodynamic (efficacy) study in OVCAR-3 subcutaneous xenograft tumor model; settings: oral, BID*21 days, OVCAR-3 xenograft in CB17-SCID mice
Experimental: Cell Culture: OVCAR-3 cells (human ovarian cancer cell line, sourced from Medsyin's cell bank) were cultured in RPMI-1640 medium (ATCC modified, Gibco) supplemented with 20% FBS (Gibco) and 1% penicillin/streptomycin (P.S.), in vitro at 37 °C with 5% CO2. The cells were passaged twice weekly. OVCAR-3 cells in the exponential growth phase were collected and resuspended in a mixture of PBS and Matrigel (Corning) to prepare a cell suspension with a concentration of 5×10^7 cells/mL for mouse inoculation. The volume ratio of PBS to Matrigel was 1:1.
Animals: CB17-SCID mice, female, 6-8 weeks old, weighing 18-21 grams. A total of 40 mice were inoculated. The mice were provided by Shanghai Lingchang Biotechnology Co., Ltd.
Tumor Inoculation: Each mouse was subcutaneously injected in the right flank with 0.2 mL of OVCAR-3 tumor cells (10×10^6 cells).
Experimental Metrics: The experimental metrics aimed to evaluate whether tumor growth was inhibited, delayed, or cured. The tumor diameter was measured twice weekly using a vernier caliper. The tumor volume was calculated using the formula: V=0.5a×b^2, where a and b represent the longest and shortest diameters of the tumor, respectively.
Antitumor metric TGI (%) reflects the tumor growth inhibition rate. TGI (%) was calculated as follows: TGI (%) = [(1 - (average tumor volume at the end of drug administration in a given group - average tumor volume at the start of drug administration in that group)) / (average tumor volume at the end of treatment in a vehicle control group - average tumor volume at the start of treatment in the vehicle control group)] × 100%.

IC50 (OVCAR-3 cells) [nM] | bioavailability [1] [%] | AUC(0-t) ([1]; iv, 5 mg/kg) [ng·h/mL] | Vd ([1]; iv, 5 mg/kg) [L/kg] | clearance ([1]; iv, 5 mg/kg) [mL/min/kg] | half-life ([1]; iv, 5 mg/kg) [h] | AUC(0-t) ([1]; po, 30 mg/kg) [ng·h/mL] | Cmax ([1]; po, 30 mg/kg) [ng/mL] | Tmax ([1]; po, 30 mg/kg) [h] | SMILES | TGI ([2]; 35 mg/Kg) [%] | TGI ([2]; 70 mg/Kg) [%] | TGI ([2]; 140 mg/Kg) [%]
309 | 129 | 6770 | 7.58 | 13 | 6.48 | 52600 | 22100 | 0.19 | CONCc1nn2ccnc(Nc3cc([C@H]4CC[C@@H](OC(=O)NC(C)C)C4)[nH]n3)c2c1F [Compound 5] |  |  | 
104 | 196 | 13200 | 0.52 | 6.35 | 0.93 | 155000 | 41100 | 1.08 | CON(C)Cc1nn2ccnc(Nc3cc([C@H]4CC[C@@H](OC(=O)NC(C)C)C4)[nH]n3)c2c1F [Compound 6] |  |  | 
124 |  |  |  |  |  |  |  |  | CON(C)Cc1nn2ccnc(Nc3cc([C@H]4CC[C@@H](OC(=O)NC(C)C)C4)[nH]n3)c2c1C [Formate salt of compound 2] | 104.1 | 114.1 | 114.6
